Source: patent publication US20250082674A1, “METHODS OF TREATING COPPER METABOLISM-ASSOCIATED DISEASES OR DISORDERS” (priority 2021, published 2025)

Tests used:
[1] = tested on: patients with Wilson disease (WD); assay: Study 301: Unified Wilson Disease Rating Scale (UWDRS Parts II, III); format: in vivo, human
Experimental: The UWDRS scoring system was developed specifically for the motor and movement disorders associated with chronic copper neurotoxicity in WD. Some individual items/subscales of the UWDRS Part III (arising from a chair, gait, handwriting, and speech) in addition to the UWDRS Parts I, II, and III overall, were assessed to further define the range of burdensome signs and symptoms of WD, so as to further understand the assessment of treatment effects on patients with WD. The UWDRS scores for consciousness (Part I) and abnormal neurologic examination findings (Part III) will be determined by a trained neurologist rater who is blinded to study treatment randomization. These scores were used to provide a rigorous dataset for evaluating changes from baseline.
Unified Wilson Disease Rating Scale (Parts I, II, and III): The UWDRS is a clinical rating scale designed to evaluate the neurological manifestations of WD that generally can be divided into 3 movement disorder syndromes: dystonic, ataxic, and Parkinsonian syndrome. The UWDRS comprises 3 parts: UWDRS Part I (level of consciousness, item 1), UWDRS Part II (a patient-reported review of daily activity items [disability], items 2 to 11), and UWDRS Part III (a detailed neurological examination, items 12 to 34).
The UWDRS Part I and Part III were assessed by a neurologist who is blinded to the treatment randomization, while UWDRS Part II may be reported to a non-blinded member of the study team by the patient, family member, or caregiver. The UWDRS has not been formally evaluated in adolescents. However, the components of Part I (level of consciousness), Part II (patient or caregiver-reported disability) and Part III (neurologic examination findings) were not fundamentally different between adults and adolescents. Patients aged 12 years and older were expected to be able to comply with UWDRS assessments.
There were trends toward stability/improvement for both treatment groups. […] As approximately 50% of patients had baseline UWDRS scores of 0, and those patients that did have scores greater than zero were relatively low in the respective UWDRS Part II (score range: 0-40) and UWDRS Part III (score range: 0-175) scale range, there was little room for improvement.

[2] = human, in vivo
[3] = human, in vivo; remark: listed apart in the source
Text: Pharmacokinetics: Blood samples for PK analysis were collected to measure plasma total molybdenum and plasma ultrafiltrate (PUF) molybdenum.

[4] = tested on: patients with WD
Text: All patients who completed the 24-week Study Period were enrolled in a 36-month Extension Period.

[5] = Study 301, patients symptomatic at baseline, Cohort 1
[6] = Study 301, patients symptomatic at baseline, Cohort 2
[7] = Study 301, patients symptomatic at baseline, Overall

Bis-choline tetrathiomolybdate [BC-TTM]
UWDRS Part II (0-40), Change from Baseline at 48 weeks, Mean ([1]; Study 301, Full Analysis Set): −0.6 | UWDRS Part II (0-40), Difference at 48 weeks, LSM (SE), BC-TTM vs SoC ([1]; Study 301, Full Analysis Set): 0.4 (0.51) | UWDRS Part III (0-175), Change from Baseline at 48 weeks, Mean ([1]; Study 301, Full Analysis Set): −2.20 | UWDRS Part III (0-175), Difference at 48 weeks, LSM (SE), BC-TTM vs SoC ([1]; Study 301, Full Analysis Set): −0.09 (1.322) | UWDRS Part III functional subscale (0-10), Change from Baseline at 48 weeks, Mean ([1]; Study 301, Full Analysis Set): −0.147 | UWDRS Part III functional subscale (0-10), Difference at 48 weeks, LSM (SE), BC-TTM vs SoC ([1]; Study 301, Full Analysis Set): −0.067 (0.1344) | UWDRS Part III-arising from chair (0-4), Change from Baseline at 48 weeks, Mean ([1]; Study 301, Full Analysis Set): 0.0 | UWDRS Part III-arising from chair (0-4), Difference at 48 weeks, LSM (SE), BC-TTM vs SoC ([1]; Study 301, Full Analysis Set): 0.0 (0.06) | UWDRS Part III-gait (0-10), Change from Baseline at 48 weeks, Mean ([1]; Study 301, Full Analysis Set): −0.06 | UWDRS Part III-gait (0-10), Difference at 48 weeks, LSM (SE), BC-TTM vs SoC ([1]; Study 301, Full Analysis Set): −0.15 (0.192) | UWDRS Part III-handwriting (0-4), Change from Baseline at 48 weeks, Mean ([1]; Study 301, Full Analysis Set): −0.1 | UWDRS Part III-handwriting (0-4), Difference at 48 weeks, LSM (SE), BC-TTM vs SoC ([1]; Study 301, Full Analysis Set): −0.1 (0.09) | UWDRS Part III-speech (0-4), Change from Baseline at 48 weeks, Mean ([1]; Study 301, Full Analysis Set): −0.1 | UWDRS Part III-speech (0-4), Difference at 48 weeks, LSM (SE), BC-TTM vs SoC ([1]; Study 301, Full Analysis Set): 0.0 (0.07) | key secondary efficacy endpoints, BC-TTM versus SoC ([1]; Study 301, after adjusting for multiplicity (hierarchical testing)): none of the key secondary efficacy endpoints were statistically significantly different | UWDRS Part III, Week 48 Change from Baseline, LSM Diff, BC-TTM vs SoC [1, 5]: −0.79 | UWDRS Part III, Week 48 Change from Baseline, Mean [1, 5]: −2.86 | UWDRS Part III, Week 48 Change from Baseline, Median [1, 5]: −2.00 | UWDRS Part III, Week 48 Change from Baseline, LSM ([1]; Study 301, patients symptomatic at baseline, Cohort 1, MMRM): −2.68 | UWDRS Part III, Week 48 Change from Baseline, LSM Diff (SE), BC-TTM vs SoC [1, 6]: 0.05 (5.041) | UWDRS Part III, Week 48 Change from Baseline, Mean [1, 6]: −3.10 | UWDRS Part III, Week 48 Change from Baseline, Median [1, 6]: −3.00 | UWDRS Part III, Week 48 Change from Baseline, LSM ([1]; Study 301, patients symptomatic at baseline, Cohort 2, MMRM): 1.43 | UWDRS Part III, Week 48 Change from Baseline, LSM Diff, BC-TTM vs SoC [1, 7]: −0.33 | UWDRS Part III, Week 48 Change from Baseline, Mean [1, 7]: −2.91 | UWDRS Part III, Week 48 Change from Baseline, Median [1, 7]: −2.00 | UWDRS Part III, Week 48 Change from Baseline, LSM ([1]; Study 301, patients symptomatic at baseline, Overall, MMRM): −1.54 | covariate effect of age on plasma total molybdenum clearance [2]: age is not a significant covariate | Daily Mean AUC(0-48 weeks) PUF Mo, Mean [3]: 0.1 mmol/L | liver status, Modified Nazer Score ([4]; Study 201): stabilized or improved in the majority of patients | neurological status, change from baseline in UWDRS Part III ([4]; Study 201, p<0.0001): significant improvements | patient-reported disability, change from baseline in UWDRS Part II ([4]; Study 201, p<0.001): significant improvements | participants with total cholesterol increase above the ULN ([4]; human, in vivo): 7 participants | patients with reversible liver (function) test elevations ([4]; human, in vivo): 39% | tolerability ([4]; human, in vivo): generally well-tolerated
